Earlier results, collected in patent US20140275235A1, “Treatment of Proliferative Disorders” (priority 2013, published 2014).

Conditions: literature refs 11, 12

Bioavailability: 80%
Time to peak plasma levels: ≤ 2 h
Structure (SMILES): C[S+]([O-])CCCCN=C=S (centres unmarked) [SFN, sulforaphane]
